Assay results reported in patent US6388105B1, “Benzofuran, indole or benzothiophene 2,4-pentadienoic acid derivatives having selective activity for retinoid X (RXR) receptors” (Allergan Sales, Inc., priority 2001, dated 2002).

Legend:
RXRα [1] = target: T1, RXRα (Homo sapiens, UniProt P19793); assay: holoreceptor transactivation assay, RXRα; format: cell-based; details: for EC50: read-out: EC50 (nM) RXR α
T1 construct: expressed in transfected cells
T1 sequence (P19793 1-462): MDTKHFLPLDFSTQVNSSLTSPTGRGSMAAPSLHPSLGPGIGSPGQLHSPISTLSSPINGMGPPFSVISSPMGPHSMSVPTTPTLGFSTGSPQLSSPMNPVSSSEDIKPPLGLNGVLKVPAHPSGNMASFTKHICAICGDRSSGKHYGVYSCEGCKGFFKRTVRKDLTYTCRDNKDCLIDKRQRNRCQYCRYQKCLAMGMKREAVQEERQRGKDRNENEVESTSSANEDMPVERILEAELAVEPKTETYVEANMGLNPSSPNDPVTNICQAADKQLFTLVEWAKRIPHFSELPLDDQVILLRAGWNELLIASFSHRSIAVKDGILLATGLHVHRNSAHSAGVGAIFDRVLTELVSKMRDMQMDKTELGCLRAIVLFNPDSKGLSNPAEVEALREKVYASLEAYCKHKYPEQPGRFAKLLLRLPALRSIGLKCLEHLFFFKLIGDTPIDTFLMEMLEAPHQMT
From the text: (§1) A holoreceptor transactivation assay and a ligand binding assay which measure the antagonist/agonist like activity of the compounds of the invention, or their ability to bind to the several retinoid receptor subtypes, respectively, are described in published PCT Application No. WO WO93/11755 (particularly on pages 30-33 and 37-41) published on Jun. 24, 1993, the specification of which is also incorporated herein by reference. A detailed experimental procedure for holoreceptor transactivations has been described by Heyman et al. Cell 68, 397-406, (1992); Allegretto et al. J. Biol. Chem. 268, 26625-26633, and Mangelsdorf et al. The Retinoids: Biology, Chemistry and Medicine, pp 319-349, Raven Press Ltd., New York, which are expressly incorporated herein by reference. The results obtained in this assay are expressed in EC50 numbers, as they are also in the chimeric receptor transactivation assay. The results of ligand binding assay are expressed in Kd numbers. (See Cheng et al. Biochemical Pharmacology Vol. 22 pp 3099-3108, expressly incorporated herein by reference.)
(§2) Table 1 discloses the activity of certain exemplary compounds of the invention in the above-described holoreceptor transactivation assay and a ligand binding assays. Particularly, the transactivation data pertaining to RAR receptors were obtained in the chimeric assay, and the data pertaining to transactivation of RXR receptors were obtained in the holoreceptor transactivation assay.

RXRβ [2] = target: T2, RXRβ (Homo sapiens, UniProt P28702); assay: holoreceptor transactivation assay, RXRβ; format: cell-based; details: for EC50: read-out: EC50 (nM) RXR β
T2 construct: expressed in transfected cells
T2 sequence (P28702 1-533): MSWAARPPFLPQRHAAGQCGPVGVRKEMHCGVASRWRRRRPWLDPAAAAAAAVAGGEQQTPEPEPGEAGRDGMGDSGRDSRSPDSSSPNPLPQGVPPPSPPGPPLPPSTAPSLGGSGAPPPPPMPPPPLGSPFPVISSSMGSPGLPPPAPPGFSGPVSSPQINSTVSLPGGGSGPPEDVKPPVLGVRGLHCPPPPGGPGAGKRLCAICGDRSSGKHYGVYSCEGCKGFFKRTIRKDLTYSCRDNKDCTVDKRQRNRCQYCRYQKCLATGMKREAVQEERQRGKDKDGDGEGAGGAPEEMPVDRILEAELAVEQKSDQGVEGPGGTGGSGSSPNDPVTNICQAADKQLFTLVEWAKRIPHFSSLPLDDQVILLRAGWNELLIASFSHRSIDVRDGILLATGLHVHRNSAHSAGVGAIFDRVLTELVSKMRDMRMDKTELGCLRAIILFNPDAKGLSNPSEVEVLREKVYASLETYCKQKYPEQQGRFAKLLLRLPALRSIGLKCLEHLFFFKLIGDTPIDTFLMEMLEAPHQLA
From the text: as §1, §2

RXRγ [3] = target: T3, RXRγ (Homo sapiens, UniProt P48443); assay: holoreceptor transactivation assay, RXRγ; format: cell-based; details: for EC50: read-out: EC50 (nM) RXR γ
T3 construct: expressed in transfected cells
T3 sequence (P48443 1-463): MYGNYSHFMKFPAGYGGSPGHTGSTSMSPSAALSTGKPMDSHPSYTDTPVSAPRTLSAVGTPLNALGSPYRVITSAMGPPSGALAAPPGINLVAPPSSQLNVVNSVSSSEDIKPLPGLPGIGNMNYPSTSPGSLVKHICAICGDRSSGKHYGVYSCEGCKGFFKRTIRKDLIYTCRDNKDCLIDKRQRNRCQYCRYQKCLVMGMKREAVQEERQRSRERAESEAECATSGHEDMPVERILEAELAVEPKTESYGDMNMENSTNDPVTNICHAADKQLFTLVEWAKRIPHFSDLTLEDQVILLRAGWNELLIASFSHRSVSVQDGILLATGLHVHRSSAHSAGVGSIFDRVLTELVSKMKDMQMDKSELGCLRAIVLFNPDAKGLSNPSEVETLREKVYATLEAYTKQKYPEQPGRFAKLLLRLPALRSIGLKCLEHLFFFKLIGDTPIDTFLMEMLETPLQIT
From the text: as §1, §2

RXRα [4] = target: T1, RXRα; assay: ligand binding assay, RXRα; details: read-out: Kd (nM) RXR α
From the text: as §1, §2

RXRβ [5] = target: T2, RXRβ; assay: ligand binding assay, RXRβ; details: read-out: Kd (nM) RXR β
From the text: as §1, §2

RXRγ [6] = target: T3, RXRγ; assay: ligand binding assay, RXRγ; details: read-out: Kd (nM) RXR γ
From the text: as §1, §2

Structure (SMILES)	% Eff RXR α (RXRα [1]) [%]	EC50 (RXRα [1]) [nM]	% Eff RXR β (RXRβ [2]) [%]	EC50 (RXRβ [2]) [nM]	% Eff RXR γ (RXRγ [3]) [%]	EC50 (RXRγ [3]) [nM]	Kd (RXRα [4]) [nM]	Kd (RXRβ [5]) [nM]	Kd (RXRγ [6]) [nM]
CCc1oc2ccc([C@@]3(C)C[C@H]3/C=C/C(C)=C/C(=O)O)cc2c1C(C)(C)C [Compound 12, 3-Methyl-6(S),7(S)-methano-7-(3-t-butyl-2-ethyl-benzofur-5-yl)-octa-2(E),4(E)-dienoic acid]	144	1.5	150	17	131	2.9	11	20	40
CCc1oc2ccc([C@@]3(C)C[C@H]3/C=C/C(C)=C/C(=O)O)cc2c1CC [Compound 20, 3-Methyl-6(S),7(S)-methano-7-(2,3-di-ethyl-benzofur-5-yl)-octa-2(E),4(E)-dienoic acid]	130	6	90	44	90	12	71	288	256
CCc1oc2ccc([C@@]3(C)C[C@H]3/C=C/C(C)=C/C(=O)O)cc2c1C(C)C [Compound 28, 3-Methyl-6(S),7(S)-methano-7-(2-ethyl-3-iso-propyl-benzofur-5-yl)-octa-2(E),4(E)-dienoic acid]	102	0.7	116	4.3	110	0.8	6.8	17	48
CCCCCc1oc2ccc([C@@]3(C)C[C@H]3/C=C/C(C)=C/C(=O)O)cc2c1C(C)(C)C [Compound 38, 3-Methyl-6(S),7(S)-methano-7-(3-t-butyl-2-n-pentyl-benzofur-5-yl)-octa-2(E),4(E)-dienoic acid]	100	2.2	96	9.3	101	2.6	19.5	98	> 1000
